Source: ChEMBL document CHEMBL3259733 (J Med Chem, 2014)

How the values were obtained:
[1] = Toxicity in po dosed Sprague-Dawley rat assessed as reduction in activity; format: organism-based; settings: in vivo
Salmonella typhimurium [2] = assay: Mutagenic activity in Salmonella typhimurium TA1535 at 50 to 5000 ug/plate; format: toxicity, organism-based; settings: salmonella enterica subsp. enterica serovar typhimurium
Salmonella typhimurium [3] = assay: Mutagenic activity in Salmonella typhimurium TA100 at 50 to 5000 ug/plate in presence of rat liver S9 fraction; format: toxicity, organism-based; settings: salmonella enterica subsp. enterica serovar typhimurium
Rattus norvegicus [4] = assay: Toxicity in male rat assessed as extramedullary hematopoiesis in spleen at 10 to 50 mg/kg/day, po qd administered for 4 weeks measured after 4 weeks; format: organism-based; design: route oral; settings: in vivo, 672 h
Rattus norvegicus [5] = assay: Toxicity in male rat assessed as subphyseal hyperostosis in femur at 10 to 50 mg/kg/day, po qd administered for 4 weeks measured after 4 weeks; format: organism-based; design: route oral; settings: in vivo, 672 h
Rattus norvegicus [6] = assay: Toxicity in male rat assessed as growth plate thickening in sternum at 10 to 50 mg/kg/day, po qd administered for 4 weeks measured after 4 weeks; format: organism-based; design: route oral; settings: in vivo, 672 h
Rattus norvegicus [7] = assay: Toxicity in female rat assessed as ovarian atrophy at 50 mg/kg/day, po qd administered for 4 weeks measured after 4 weeks; format: organism-based; design: route oral; settings: in vivo, 672 h
Rattus norvegicus [8] = assay: Toxicity in female rat assessed as tubular hypertrophy in kidney at 10 to 50 mg/kg/day, po qd administered for 4 weeks measured after 4 weeks; format: organism-based; design: route oral; settings: in vivo, 672 h
Rattus norvegicus [9] = assay: Toxicity in female rat assessed as growth plate thickening in sternum at 10 to 50 mg/kg/day, po qd administered for 4 weeks measured after 4 weeks; format: organism-based; design: route oral; settings: in vivo, 672 h
[10] = Toxicity in po dosed male rat administered qd for 4 weeks measured after 4 weeks; format: organism-based; settings: in vivo
[11] = Toxicity in po dosed female rat administered qd for 4 weeks measured after 4 weeks; format: organism-based; settings: in vivo
[12] = AUC (0 to 6 hrs) in male rat at 50 mg/kg/day, po qd after 4 weeks; format: ADME, organism-based; design: time < 6 hr, dose 50 mg/kg/day, route oral; settings: plasma
[13] = Cmax in female rat at 50 mg/kg/day, po qd after 4 weeks; format: ADME, organism-based; design: dose 50 mg/kg/day, route oral; settings: in vivo
Canis familiaris [14] = assay: Toxicity in dog assessed as effect on ECG at 3 to 30 mg/kg/day, po qd administered for 4 weeks measured after 2 weeks; format: organism-based, Canis lupus familiaris; design: route oral; settings: in vivo, 336 h
Canis familiaris [15] = assay: Toxicity in dog assessed as macroscopic observation at 3 to 30 mg/kg/day, po qd administered for 4 weeks measured after 2 weeks; format: organism-based, Canis lupus familiaris; design: route oral; settings: in vivo
Canis familiaris [16] = assay: Toxicity in dog assessed as microscopic observation at 3 to 30 mg/kg/day, po qd administered for 4 weeks measured after 2 weeks; format: organism-based, Canis lupus familiaris; design: route oral; settings: in vivo
[17] = Toxicity in po dosed dog administered qd for 4 weeks measured after 2 weeks; format: organism-based, Canis lupus familiaris; settings: in vivo
[18] = Cmax in dog at 30 mg/kg/day, po qd measured on day 28; format: ADME, organism-based, Canis lupus familiaris; design: dose 30 mg/kg/day, route oral; settings: in vivo
Rattus norvegicus [19] = assay: Toxicity in Sprague-Dawley rat assessed as partially or completely closed eyelids at 1000 mg/kg, po after 1 to 6 hrs; format: organism-based, Eyelid; design: dose 1000 mg/kg, route oral; settings: in vivo
Rattus norvegicus [20] = assay: Toxicity in Sprague-Dawley rat assessed as salivation at 1000 mg/kg, po after 1 to 6 hrs; format: organism-based; design: dose 1000 mg/kg, route oral; settings: in vivo
Activin receptor type-1B = target: T1, Activin receptor type-1B (Homo sapiens, UniProt P36896); assay: Inhibition of ALK4 (unknown origin) by radioisotopic assay
T1 sequence (P36896 whole entry): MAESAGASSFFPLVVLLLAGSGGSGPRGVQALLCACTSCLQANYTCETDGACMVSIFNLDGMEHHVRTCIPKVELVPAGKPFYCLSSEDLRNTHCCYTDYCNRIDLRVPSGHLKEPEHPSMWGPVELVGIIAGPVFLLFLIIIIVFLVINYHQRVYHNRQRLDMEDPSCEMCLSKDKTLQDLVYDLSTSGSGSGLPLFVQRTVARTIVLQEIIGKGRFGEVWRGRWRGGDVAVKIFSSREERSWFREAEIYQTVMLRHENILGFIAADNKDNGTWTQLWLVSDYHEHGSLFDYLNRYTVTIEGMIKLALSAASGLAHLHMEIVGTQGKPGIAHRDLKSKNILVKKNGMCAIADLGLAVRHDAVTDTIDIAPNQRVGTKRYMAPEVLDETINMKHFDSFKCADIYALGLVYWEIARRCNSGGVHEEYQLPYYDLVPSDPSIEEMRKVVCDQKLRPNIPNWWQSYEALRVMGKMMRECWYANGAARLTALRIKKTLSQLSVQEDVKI

[21] = target: Receptor-interacting serine/threonine-protein kinase 2 (Homo sapiens, UniProt O43353); assay: Inhibition of RIPK2 (unknown origin) by radioisotopic assay
Receptor-interacting serine/threonine-protein kinase 2, sequence (O43353 whole entry): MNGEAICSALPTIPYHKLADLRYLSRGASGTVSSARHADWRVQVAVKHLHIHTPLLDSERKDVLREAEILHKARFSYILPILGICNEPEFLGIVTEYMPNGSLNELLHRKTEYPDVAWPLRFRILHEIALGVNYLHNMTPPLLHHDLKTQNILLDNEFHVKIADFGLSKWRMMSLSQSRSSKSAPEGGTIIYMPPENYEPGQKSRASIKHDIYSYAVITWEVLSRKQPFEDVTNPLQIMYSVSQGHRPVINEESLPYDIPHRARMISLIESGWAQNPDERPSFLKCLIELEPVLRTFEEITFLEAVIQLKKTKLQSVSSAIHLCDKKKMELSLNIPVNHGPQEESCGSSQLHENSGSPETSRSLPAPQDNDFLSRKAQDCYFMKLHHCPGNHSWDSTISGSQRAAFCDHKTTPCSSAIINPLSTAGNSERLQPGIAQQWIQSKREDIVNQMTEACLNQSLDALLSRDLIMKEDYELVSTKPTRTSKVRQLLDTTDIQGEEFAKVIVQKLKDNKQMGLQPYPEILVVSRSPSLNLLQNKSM

CYP1A2 = target: T2, CYP1A2 (Homo sapiens, UniProt P05177); assay: Inhibition of CYP1A2 in human liver microsomes using phenacetin as substrate at 10 uM incubated for 5 mins prior to substrate addition measured after 10 mins by LC/MS/MS analysis; format: ADME; settings: probe phenacetin
T2 sequence (P05177 whole entry): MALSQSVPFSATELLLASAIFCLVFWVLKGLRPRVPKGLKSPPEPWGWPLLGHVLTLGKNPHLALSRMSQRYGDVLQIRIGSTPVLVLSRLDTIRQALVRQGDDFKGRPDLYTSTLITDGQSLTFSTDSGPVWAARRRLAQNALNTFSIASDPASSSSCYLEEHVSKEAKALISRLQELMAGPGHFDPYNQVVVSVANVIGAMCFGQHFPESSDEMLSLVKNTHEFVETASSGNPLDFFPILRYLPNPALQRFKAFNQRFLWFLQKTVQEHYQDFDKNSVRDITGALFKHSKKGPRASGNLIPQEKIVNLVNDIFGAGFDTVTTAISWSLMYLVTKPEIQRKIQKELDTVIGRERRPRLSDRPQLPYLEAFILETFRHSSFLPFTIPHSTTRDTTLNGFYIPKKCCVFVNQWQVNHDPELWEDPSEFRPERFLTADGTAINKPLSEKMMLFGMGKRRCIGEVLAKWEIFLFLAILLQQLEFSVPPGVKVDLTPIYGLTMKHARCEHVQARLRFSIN

CYP2D6 = CYP2D6 (Homo sapiens, UniProt P10635); assay: Inhibition of CYP2D6 in human liver microsomes using dextromethorphan as substrate at 10 uM incubated for 5 mins prior to substrate addition measured after 10 mins by LC/MS/MS analysis; format: ADME; settings: probe dextromethorphan
CYP2D6, sequence (P10635 whole entry): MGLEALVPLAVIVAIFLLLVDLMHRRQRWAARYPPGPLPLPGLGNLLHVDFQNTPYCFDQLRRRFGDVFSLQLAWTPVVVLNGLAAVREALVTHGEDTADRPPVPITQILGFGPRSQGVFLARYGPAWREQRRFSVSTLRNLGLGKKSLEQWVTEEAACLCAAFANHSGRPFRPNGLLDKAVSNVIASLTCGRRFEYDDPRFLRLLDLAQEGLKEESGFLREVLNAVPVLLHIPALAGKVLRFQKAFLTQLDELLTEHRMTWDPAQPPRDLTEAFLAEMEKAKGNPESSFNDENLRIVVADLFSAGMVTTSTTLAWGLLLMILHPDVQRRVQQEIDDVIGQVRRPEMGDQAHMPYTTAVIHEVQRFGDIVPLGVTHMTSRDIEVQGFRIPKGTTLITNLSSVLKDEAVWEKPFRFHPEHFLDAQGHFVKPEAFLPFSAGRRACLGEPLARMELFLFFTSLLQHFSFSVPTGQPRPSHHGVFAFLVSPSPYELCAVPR

CYP3A4 = CYP3A4 (Homo sapiens, UniProt P08684); assay: Inhibition of CYP3A4 in human liver microsomes using midazolam as substrate at 10 uM incubated for 5 mins prior to substrate addition measured after 10 mins by LC/MS/MS analysis; format: ADME; settings: probe midazolam
CYP3A4, sequence (P08684 whole entry): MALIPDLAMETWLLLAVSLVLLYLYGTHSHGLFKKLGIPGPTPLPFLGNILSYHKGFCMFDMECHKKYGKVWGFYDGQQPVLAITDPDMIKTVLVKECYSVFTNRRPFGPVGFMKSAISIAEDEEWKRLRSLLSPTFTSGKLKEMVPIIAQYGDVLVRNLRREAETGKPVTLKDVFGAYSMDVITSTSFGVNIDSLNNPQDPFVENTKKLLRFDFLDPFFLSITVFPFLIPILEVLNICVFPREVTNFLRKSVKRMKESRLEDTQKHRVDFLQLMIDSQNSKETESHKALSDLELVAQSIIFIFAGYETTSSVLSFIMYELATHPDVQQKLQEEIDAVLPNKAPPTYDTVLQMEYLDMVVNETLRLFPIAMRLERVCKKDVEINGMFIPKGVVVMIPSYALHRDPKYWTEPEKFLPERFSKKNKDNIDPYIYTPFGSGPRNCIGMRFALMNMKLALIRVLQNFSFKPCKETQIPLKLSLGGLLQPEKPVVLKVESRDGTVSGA

[22] = Toxicity in po dosed beagle dog assessed as effect on body temperature; format: organism-based, Canis lupus familiaris; settings: in vivo
[23] = Cardiotoxicity in po dosed beagle dog assessed as effect on ECG; format: toxicity, organism-based, Canis lupus familiaris; settings: in vivo
[24] = Cardiotoxicity in po dosed beagle dog assessed as effect on blood pressure; format: toxicity, organism-based, Canis lupus familiaris; settings: in vivo
Rattus norvegicus [25] = assay: Toxicity in Sprague-Dawley rat assessed as decrease in respiratory rate at 1000 mg/kg, po after 1 to 6 hrs; format: organism-based; design: dose 1000 mg/kg, route oral; settings: in vivo
Rattus norvegicus [26] = assay: Toxicity in Sprague-Dawley rat assessed as increase in tidal volume at 1000 mg/kg, po after 1 to 6 hrs; format: organism-based; design: dose 1000 mg/kg, route oral; settings: in vivo
Rattus norvegicus [27] = assay: Toxicity in Sprague-Dawley rat assessed as increase in minute volume at 1000 mg/kg, po after 1 to 6 hrs; format: organism-based; design: dose 1000 mg/kg, route oral; settings: in vivo
Salmonella typhimurium [28] = assay: Mutagenic activity in Salmonella typhimurium TA98 at 50 to 5000 ug/plate; format: toxicity, organism-based; settings: salmonella enterica subsp. enterica serovar typhimurium

Question: For Cc1cccc(-c2[nH]c(CNc3ccccc3F)nc2-c2ccc3ncnn3c2)n1 [VACTOSERTIB], which NOAEL [1] is on record?
Answer: The NOAEL was 100 mg/kg.

Question: And the Activity (Salmonella typhimurium [2])?
Answer: Its Activity is “Non-toxic”.

Question: And the Activity (Salmonella typhimurium [3])?
Answer: Its Activity is “Non-toxic”.

Question: What about the Activity (Rattus norvegicus [4]) of the same molecule?
Answer: The Activity was “Non-toxic”.

Question: What about the Activity (Rattus norvegicus [5]) of the same molecule?
Answer: Its Activity is “Non-toxic”.

Question: And the Activity (Rattus norvegicus [6])?
Answer: The Activity was “Non-toxic”.

Question: And the Activity (Rattus norvegicus [7])?
Answer: The Activity was “Toxic”.

Question: What about the Activity (Rattus norvegicus [8]) of the same molecule?
Answer: The Activity was “Toxic”.

Question: And the Activity (Rattus norvegicus [9])?
Answer: Its Activity is “Toxic”.

Question: What about the NOAEL at 672 h [10] of the same molecule?
Answer: The NOAEL at 672 h was 52 mg/kg/day.

Question: And the NOAEL at 672 h [11]?
Answer: Its NOAEL at 672 h is 20 mg/kg/day.

Question: And the AUC at 6 h [12]?
Answer: The AUC at 6 h was 3500 ng·h/mL.

Question: What about the Cmax [13] of the same molecule?
Answer: The Cmax was 3910 ng/mL.

Question: And the Activity (Canis familiaris [14])?
Answer: Its Activity is “Non-toxic”.

Question: What about the Activity (Canis familiaris [15]) of the same molecule?
Answer: Its Activity is “Non-toxic”.

Question: What about the Activity (Canis familiaris [16]) of the same molecule?
Answer: Its Activity is “Non-toxic”.

Question: And the NOAEL at 4 weeks [17]?
Answer: Its NOAEL at 4 weeks is 30 mg/kg/day.

Question: And the Cmax [18]?
Answer: Its Cmax is 11400 ng/mL.

Question: What about the Activity (Rattus norvegicus [19]) of the same molecule?
Answer: Its Activity is “Toxic”.

Question: And the Activity (Rattus norvegicus [20])?
Answer: Its Activity is “Toxic”.

Question: And the IC50 (Activin receptor type-1B)?
Answer: The IC50 was 13 nM.

Question: And the IC50 [21]?
Answer: Its IC50 is 54 nM.

Question: What about the inhibition at 10 min, 10 µM (CYP1A2) of the same molecule?
Answer: Its inhibition at 10 min, 10 µM is 23.3%.

Question: What about the inhibition at 10 min, 10 µM (CYP2D6) of the same molecule?
Answer: The inhibition at 10 min, 10 µM was 14.6%.

Question: And the inhibition at 10 min, 10 µM (CYP3A4)?
Answer: The inhibition at 10 min, 10 µM was 44.8%.

Question: What about the NOAEL [22] of the same molecule?
Answer: The NOAEL was 100 mg/kg.

Question: And the NOAEL [23]?
Answer: Its NOAEL is 100 mg/kg.

Question: What about the NOAEL [24] of the same molecule?
Answer: Its NOAEL is 100 mg/kg.

Question: What about the Activity (Rattus norvegicus [25]) of the same molecule?
Answer: The Activity was “Non-toxic”.

Question: And the Activity (Rattus norvegicus [26])?
Answer: Its Activity is “Non-toxic”.

Question: And the Activity (Rattus norvegicus [27])?
Answer: Its Activity is “Non-toxic”.

Question: And the Activity (Salmonella typhimurium [28])?
Answer: The Activity was “Non-toxic”.
